Test results published in the METLIN SMRT retention time set (Domingo-Almenara et al. 2019).

Test: gradient 5% acetonitrile 3 min, to 50% in 2 min, to 85% in 15 min, held 3 min, 100 µL/min
Details: column: Zorbax Extend-C18 2.1 x 50 mm; eluents: water / acetonitrile, 0.1% formic acid
Procedure, shortened: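 The system's dead and dwell volumes were 40 μL and 900 μL, with a Zorbax Extend-C18 column (2.1 × 50 mm, 1.8 μm) run at 100 μL/min in water and acetonitrile containing 0.1% formic acid each. Pure standards were analyzed in mixtures of ~100 molecules by HPLC–quadrupole time-of-flight mass spectrometry in positive and negative ionization mode. Retention time was assigned from computationally picked, manually inspected adduct peaks.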

## Cc1ccc(Sc2nccnc2N2CCC(C(=O)NCC3CCCO3)CC2)cc1 (centres undefined)
  RP-LC retention time: 814 s

## CCN1C(=O)c2cccnc2Sc2cc(NC(=O)c3ccccc3Cl)ccc21
  RP-LC retention time: 828 s

## Cc1cccc(NC(=O)N2CCN(c3cc(C)nc(N4CCOCC4)n3)CC2)c1
  RP-LC retention time: 623 s

## CCCCOC(=O)C1=CN(C)S(=O)(=O)N=C1C
  RP-LC retention time: 875 s

## CCc1ccc2occ(CC(=O)N(Cc3ccc(N(C)C)cc3)C3CCS(=O)(=O)C3)c2c1 (centres undefined)
  RP-LC retention time: 868 s

## CCCc1ccc(S(=O)(=O)N2CCC3(CC2)NCCN=C3NCc2cccc(C)c2)cc1
  RP-LC retention time: 870 s

## Cn1cc(S(=O)(=O)N2CCC(C(=O)Nc3ccc4c(c3)OCO4)CC2)cc1C(=O)N1CCCC1
  RP-LC retention time: 716 s

## CC1CS(=O)(=O)N(c2cccc(C(=O)N3CCN(c4ccccc4F)CC3)c2)C1=O (centres undefined)
  RP-LC retention time: 790 s

## CCOC(=O)c1nnn(-c2ccccc2OCC)c1C(=O)OCC
  RP-LC retention time: 970 s

## CCn1ccc(C(=O)NC2CCN(C3=NS(=O)(=O)C(c4ccccc4)=C3C)CC2)n1
  RP-LC retention time: 746 s

## COC(=O)c1scc(-c2ccccc2)c1S(=O)(=O)N1CCN(c2ccccn2)CC1
  RP-LC retention time: 729 s

## CNC(=O)C1CCCN(C(=O)Nc2ccc(NC(=O)Nc3ccc(C)cc3)cc2)C1 (centres undefined)
  RP-LC retention time: 883 s

## CCOc1ccccc1N1CCN(c2cc(C(=O)O)c3cc(NC(=O)C4CCCC4)ccc3n2)CC1
  RP-LC retention time: 638 s

## O=S(=O)(c1ccccc1)c1cnc2c(N3CCNCC3)cccc2c1
  RP-LC retention time: 691 s

## CN1C(=O)C(c2c[nH]c3ccccc23)=C(c2c[nH]c3ccccc23)C1=O
  RP-LC retention time: 868 s

## O=C(NCc1ccccc1C(F)(F)F)C1CCN(c2cncnc2N2CCCC2)CC1
  RP-LC retention time: 695 s

## Cn1cnc2c(NCc3ccccc3)nc(NCCO)nc21
  RP-LC retention time: 657 s

## CCN(CC)c1ccc(CNC(=O)C2CCc3nc(N4CCOCC4)ncc3C2)cc1 (centres undefined)
  RP-LC retention time: 588 s

## COc1ccc(OCC(=O)N2CCN(c3nc(CN4CCOCC4)cs3)CC2)cc1
  RP-LC retention time: 611 s

## Clc1cccc(-c2noc3ncnc(N4CCN(c5ccccn5)CC4)c23)c1
  RP-LC retention time: 716 s

## CS(=O)(=O)N1CCC(C(=O)Nc2ccc(C(F)(F)F)cc2)Oc2ccc(Cl)cc21 (centres undefined)
  RP-LC retention time: 1060 s

## Cc1cc(C)cc(C(=O)N2CCC(n3c(-c4ccco4)nc4cccnc43)C2)c1 (centres undefined)
  RP-LC retention time: 825 s

## CCCn1cc(-c2ccncc2)cc1C(=O)NCc1cc(F)cc(F)c1
  RP-LC retention time: 711 s

## COc1ccc2cc(C(=O)N3CCC(CC(=O)NCCc4c[nH]c5ccc(OC)cc45)CC3)[nH]c2c1
  RP-LC retention time: 759 s

## Cc1cc(Nc2nc3ccncc3n(C(C)C)c2=O)ccc1F
  RP-LC retention time: 679 s

## Cn1nc(C(=O)N2CCOCC2)c2c1CCN(C(=O)Nc1ccccc1)C2
  RP-LC retention time: 658 s

## CCn1c(SC)nnc1-c1nn(C)c2c1CN(C(C)=O)CC2
  RP-LC retention time: 664 s

## Cc1cc(C)nc(N2CCN(c3ccc(Cl)cc3)CC2)n1
  RP-LC retention time: 1050 s

## Cc1cccc(Sc2nccnc2N2CCC(C(=O)NCCN3CCOCC3)CC2)c1
  RP-LC retention time: 668 s

## O=C(Nc1ccc2c(c1)OCO2)Nc1ccc2c(c1)N(C(=O)c1ccccc1)CC2
  RP-LC retention time: 882 s

## Cc1nc(-c2cccc(-c3noc(C(=O)NCCCN4CCC(C)CC4)n3)c2)cs1
  RP-LC retention time: 699 s

## CCC1CCCCN1CCNC(=O)Cn1c(=O)n(-c2ccccc2)c2ncccc21 (centres undefined)
  RP-LC retention time: 597 s

## CCNC(=O)C1CCCN(C(=O)c2cc(C)cc(C)c2)C1 (centres undefined)
  RP-LC retention time: 718 s

## O=C1C(=O)N(C2CCN(S(=O)(=O)c3ccc(F)c(Cl)c3)CC2)CCN1Cc1ccccc1
  RP-LC retention time: 862 s

## CC(CCNC(=O)C1CCN(c2nc3cccnc3s2)CC1)N1CCCC1 (centres undefined)
  RP-LC retention time: 580 s

## CCCC(=O)N1CCc2c([nH]c3ccc(OC)cc23)C1c1ccc(F)cc1 (centres undefined)
  RP-LC retention time: 1040 s

## Cc1c(C(=O)NCC(C)C)cnn1-c1cc(-c2nc(C(C)(C)C)no2)ccn1
  RP-LC retention time: 1150 s

## O=C(NCc1ccc(C(F)(F)F)cc1)c1ccc(-c2cncnc2)nc1
  RP-LC retention time: 782 s

## CS(=O)(=O)c1ccc(Cl)c(NC(=O)c2cccnc2)c1
  RP-LC retention time: 590 s

## CCC(=O)N1CCc2cc(S(=O)(=O)CCC(=O)N3CC(C)CC(C)C3)ccc21 (centres undefined)
  RP-LC retention time: 871 s

## CCN1CCN(C(=O)C2CCN(c3nnc(-c4ccc(OC)cc4)o3)CC2)CC1
  RP-LC retention time: 593 s

## Cc1sc(NC(=O)c2ccc(F)cc2)nc1-c1ccc2c(c1)NC(=O)C(C)O2 (centres undefined)
  RP-LC retention time: 935 s

## O=C(c1noc2ccc(S(=O)(=O)N3CCCc4ccccc43)cc12)N1CCCC1
  RP-LC retention time: 1060 s

## Cc1ccc(-n2c(=O)c3c(cc(C)n3C)n(CC(=O)N3CCc4ccccc43)c2=O)cc1
  RP-LC retention time: 928 s

## COC(=O)c1c(NCc2ccc(F)cc2F)c2cccc(Cl)c2[nH]c1=O
  RP-LC retention time: 822 s

## c1ccc(CNc2nc(-c3ccncc3)nc3c2CCC3)nc1
  RP-LC retention time: 555 s

## CCNc1nc(C)cc(N2CCN(S(=O)(=O)c3cc(C(C)(C)C)ccc3OC)CC2)n1
  RP-LC retention time: 803 s

## O=C(NC1CCCCC1)NC1CCN(C(=O)C2CCC2)C1 (centres undefined)
  RP-LC retention time: 680 s

## COc1ccc2c(c1)C1(CCN(C(=O)c3ccccc3OC)C1)C(=O)N2C (centres undefined)
  RP-LC retention time: 725 s

## COc1cc(NC(=O)CCc2nc(-c3ccc(N4CCCC4)cc3)no2)cc(OC)c1
  RP-LC retention time: 1070 s

## O=C(NCc1ccccc1F)c1ccc2c(c1)ncn2CCN1CCCC1
  RP-LC retention time: 574 s

## CCSc1ccccc1C(=O)Nc1cccc2ccc(-n3ccnc3)nc12
  RP-LC retention time: 668 s

## Cc1ccc(-c2ccc3nn(Cc4nc(-c5ccc(F)c(Br)c5)no4)c(=O)n3n2)cc1
  RP-LC retention time: 1090 s

## COc1cccc(-c2nc(-c3ccc4oc(-c5ccccc5)nc4c3)no2)c1OC
  RP-LC retention time: 1410 s

## CCN(CC)S(=O)(=O)c1ccc2c(c1)cc(C(=O)NCCc1c[nH]c3ccc(Cl)cc13)n2C
  RP-LC retention time: 1060 s

## Fc1ccc(Cn2cccc2-c2nc(-c3cccnc3)no2)cc1
  RP-LC retention time: 1100 s

## Cc1ccc(-c2nc(NC(=O)/C=C/c3ccc(Cl)cc3)sc2C)cc1
  RP-LC retention time: 1300 s

## CCNc1cc(N2CCC(CCC(=O)NCCC(C)C)CC2)ncn1
  RP-LC retention time: 538 s

## Cc1ccc2c(Nc3ccc(C(C)C)cc3)c(C(=O)N3CCC(C)CC3)cnc2n1
  RP-LC retention time: 737 s

## COc1ccc(CNC(=O)C2CCN(S(=O)(=O)c3cn(C(C)C)cn3)CC2)cc1
  RP-LC retention time: 733 s

## O=C(Nc1ccccc1C(F)(F)F)N1CCCC(Cn2cnc3cccnc32)C1 (centres undefined)
  RP-LC retention time: 680 s

## Cn1cnc([N+](=O)[O-])c1Sc1nnnn1-c1ccccc1
  RP-LC retention time: 715 s

## CCCCC(CC)C(=O)Nc1nc(-c2ccc(Cl)cc2)cs1 (centres undefined)
  RP-LC retention time: 1240 s

## COc1ccccc1CNS(=O)(=O)c1cc2n(c1)CCN(C(C)C)C2=O
  RP-LC retention time: 784 s

## O=C(C1=CN(c2ccc(F)c(F)c2)c2cc(Cl)ccc2S1(=O)=O)N1CCOCC1
  RP-LC retention time: 775 s

## COc1ccc(NC(=O)CN2CCc3[nH]c4c(C)cc(F)cc4c(=O)c3C2)c(OC)c1
  RP-LC retention time: 631 s

## CC(C)n1cc(C#N)c(N)n1
  RP-LC retention time: 658 s

## Cn1cc(C(=O)NCc2ccc(N3CCCCC3)cc2)c2cccnc21
  RP-LC retention time: 576 s

## CCOC(=O)c1c(C(C)(C)C)oc2ccc(OCC#N)cc12
  RP-LC retention time: 1140 s

## O=C(O)CN1CCCc2c(cnn2Cc2ccccc2)C1=O
  RP-LC retention time: 656 s

## COc1cc(OC)cc(-c2nnc(Cc3nc(-c4ccccc4Cl)no3)o2)c1
  RP-LC retention time: 1020 s

## O=C(NCc1noc(-c2cccc(Cl)c2)n1)c1coc(-c2ccccc2)n1
  RP-LC retention time: 1050 s

## CCCN(C(=O)CC)c1nc(-c2cccc(Cl)c2)cs1
  RP-LC retention time: 1320 s

## COc1ccc(CN2C=C(C(=O)OCc3noc(-c4ccc(C)c(C)c4)n3)C(C)=NS2(=O)=O)cc1
  RP-LC retention time: 1230 s

## O=C(NC1CCCCCC1)c1nc(N2CCCC2)c2ccccc2n1
  RP-LC retention time: 759 s

## CCOc1ccc(CCNC(=O)c2nc(CCS(=O)(=O)c3ccccc3)no2)cc1OCC
  RP-LC retention time: 900 s

## CCOc1ccccc1NC(=O)N1CC(N(CC)C2CCOCC2)C1
  RP-LC retention time: 561 s

## CCN1CCN(c2cc(C(=O)O)c3cc(NC(=O)c4ccc(Br)cc4)ccc3n2)CC1
  RP-LC retention time: 610 s

## CCOc1cc(C(=O)Nc2c(-c3ccc(F)cc3)nc3ccccn23)cc(OCC)c1OCC
  RP-LC retention time: 788 s

## Cc1nn(-c2nc(-c3ccccc3)cs2)c(C)c1CC(=O)Nc1ccccc1
  RP-LC retention time: 1130 s

## CCOc1ccccc1NC(=O)N1CCN(CCNC(=O)c2ccc3c(c2)OCO3)CC1
  RP-LC retention time: 581 s

## Cc1ccc(NS(=O)(=O)c2c[nH]c3ncccc23)cc1F
  RP-LC retention time: 761 s

## Cc1ccc(-n2ccc(=O)c(-c3nc(-c4ccc(OC(C)C)cc4)no3)n2)cc1
  RP-LC retention time: 1060 s

## CN(C)c1ncncc1N1CCC(C(=O)NCc2ccc3c(c2)OCO3)CC1
  RP-LC retention time: 587 s

## Cn1c(C(=O)NCCCN2CCN(C3CCCCC3)CC2)cc2sccc21
  RP-LC retention time: 547 s

## Cc1cc(C)n(CCN(C(=O)c2ccc([N+](=O)[O-])s2)c2nc3ccccc3s2)n1
  RP-LC retention time: 1020 s

## Cc1cc2nn(CC(=O)Nc3ccc(C)c(F)c3)c(=O)n2c(N2CCCC2)n1
  RP-LC retention time: 805 s

## Cc1cc(N(C)C)nc(N2CCN(C(=O)c3ccc(C(C)(C)C)cc3)CC2)n1
  RP-LC retention time: 736 s

## Cn1cnc(S(=O)(=O)N2CC(Oc3ccc(-c4nc(-c5ccccc5)no4)cc3)C2)c1
  RP-LC retention time: 983 s
